Measured values reported in patent US8080252B2, “Compounds and methods of modulating angiogenesis” (The Cleveland Clinic Foundation, priority 2006, dated 2011).
Non-standard residues stand in square brackets, D forms with d. No end group written: not given here. pY = N[C@@H](Cc1ccc(OP(=O)(O)O)cc1)C(=O)O

Experiments:
[1] = system: angiogenesis in VEGF-A-containing Matrigel; experiment: Matrigel plug assay, neovascularization by hemoglobin assay (Example 4); assay type: in vivo; settings: 50 mM peptide in 500 μL Matrigel with VEGF (60 ng/mL) and heparin, subcutaneous, 7 days, C57/Bl6 mice
Description: Matrigel plug assays were performed in age- and sex-matched C57/Bl6 background mice. Each animal received an abdominal subcutaneous injection of 500 μL Matrigel mixed with VEGF (60 ng/mL), heparin (60 units/mL) and 50 mM of control ([…] G DTANNPL […]-COOH) (SEQ ID NO: 14) or beta-3 integrin cytoplasmic domain inhibitory peptide ([…] G DTANNPL Yp […]-COOH) (SEQ ID NO: 2). After 7 days, the animals were euthanized and dissected. Matrigel plugs were removed and digested using 5 mL Drabkin reagent and neovascularization was assessed using a hemoglobin assay as per the manufacturer's protocol (FIG. 16).

c-Src = target: T1, c-Src (Homo sapiens, UniProt P12931); experiment: In vitro kinase assay, c-Src phosphorylation of β3 integrin cytoplasmic domain or peptides; assay type: biochemical; settings: [γ-32P] ATP incorporation
T1 construct: c-Src was immunoprecipitated from VEGF-stimulated HUVEC; endogenous in cells; host or cells: HUVEC (immunoprecipitate)
Excerpt: Principle mechanism by which integrins appear to mediate the transfer of information from extracellular environment to intracellular milieu is through phosphorylation of β-subunit at cytoplasmic tyrosine motifs. Ligand occupancy of αvβ3 is a prerequisite for the tyrosine phosphorylation events and implying an important role for outside-in integrin signaling in this process. To examine whether c-Src can directly mediate β3 integrin tyrosine phosphorylation, c-Src was immunoprecipitated from VEGF-stimulated HUVEC. Immunocomplex were incubated with a full-length purified β3 integrin cytoplasmic domain, and [γ-^32P] ATP incorporation into was monitored. […] Recombinant purified c-Src also phosphorylated the β3 integrin whereas no phosphorylation was observed without the substrate, indicating the specificity of the reaction (lane 1 and 5). […] To further investigate whether c-Src phosphorylates Tyr-747 or Tyr-759 of β3 integrin or both residues, kinase assay were performed using peptide derived from these two distinct sites of β3 integrin as substrates (FIG. 20 E). […] In the presence of Tyr-747/Tyr-759 β3 integrin cytoplasmic peptide, a dramatic increase in [γ-^32P] ATP incorporation was observed as compared to control peptides devoid of tyrosine motifs. Similar results were observed using purified recombinant c-Src protein. As anticipated, [γ-^32P] […]

HUVECs [2] = experiment: Cell adhesion assay of HUVECs on vitronectin (Example 5); assay type: cell-based, Human
Description: Cells were washed twice with sterile PBS and re-suspended in DMEM. The cell suspensions were added to ligand-coated wells and placed in humidified incubator for 45 min. Wells were gently washed three times with DMEM and photographs were taken. The numbers of attached and spread cells per field were counted.

HUVECs [3] = experiment: Cell migration assay of HUVECs on vitronectin, VEGF as agonist (Example 5); assay type: cell-based, Human; settings: vitronectin as substrate
Description: To assess the role of Src-mediated β3 integrin tyrosine phosphorylation in αvβ3 integrin dependent EC migration, HUVECs transfected with various forms of Src were evaluated in migration assays using VEGF as an agonist and vitronectin as a substrate. […] To further evaluate the c-Src mediated β3 integrin cytoplasmic tyrosine motifs phosphorylation in αvβ3 integrin dependent endothelial cell migration, wild type and DiYF mouse lung microvascular endothelial cells were transfected with wild type, dominant negative and catalytically active form of c-Src and stimulated with VEGF (FIG. 23 B).
Transwell tissue culture inserts were coated with αvβ3 integrin ligand vitronectin for 24 h at 4° C. Endothelial cells were transfected with various forms of c-Src or treated with inhibitors and were trypsinized; then 1×10^5 cells were added into each well. Cells were allowed to migrate for 12 h and fixed with 70% methanol for 15 min and stained with Giemsa. The non-migrated cells adhered to the top surface were removed and three random 10× fields were photographed using an inverted phase contrast microscopy.

β3 integrin = β3 integrin tyrosine phosphorylation (Tyr-747 and 759) in HUVECs, Western blot; assay type: cell-based, Human; settings: adherent endothelial cells plated on vitronectin
Description: αvβ3 integrin is expressed on proliferating endothelial cells during angiogenesis and vascular remodeling and the blockade of αvβ3 integrin suppressed angiogenesis in several in vivo models. Therefore, we assessed whether the blockade of αvβ3 affected tyrosine phosphorylation of β3 subunit. […] Cells were also treated with non-immune IgG as control. These cells were washed and further induced with VEGF for 5 min at 37° C. Cell lysates were analyzed for phosphorylation of β3 integrin (Tyr-747 and 759). […] Basal level of β3 integrin tyrosine phosphorylation remains unaffected irrespective of different blocking antibody treatment. To further examine consequences of αvβ3 integrin blocking antibodies, cell lysates were analyzed for tyrosine phosphorylation of VEGFR-2 (Tyr-1175).
Cytoplasmic domains of integrin β subunits are highly conserved and represents region of structural homology between the various groups. […] Cell lysates were analyzed for the phosphorylation of β3 integrin. […]
Cells were lysed in immunoprecipitation lysis buffer (1% Noniodet P-40, 150 mM NaCl, 50 mM Tris-HCL (pH 7.8), 2 mM EDTA, 10 mM NaF, 10 mM Na2P2O7, 2 mM Na3VO4 10 μg/mL leupeptin, 4 μg/mL pepstatin and 0.1 U/mL aprotinin). […] Bands were analyzed by densitomeric analysis using Kodak 1D software and fold changes were indicated.

T1 sequence (P12931 whole entry, the tested form may be a part): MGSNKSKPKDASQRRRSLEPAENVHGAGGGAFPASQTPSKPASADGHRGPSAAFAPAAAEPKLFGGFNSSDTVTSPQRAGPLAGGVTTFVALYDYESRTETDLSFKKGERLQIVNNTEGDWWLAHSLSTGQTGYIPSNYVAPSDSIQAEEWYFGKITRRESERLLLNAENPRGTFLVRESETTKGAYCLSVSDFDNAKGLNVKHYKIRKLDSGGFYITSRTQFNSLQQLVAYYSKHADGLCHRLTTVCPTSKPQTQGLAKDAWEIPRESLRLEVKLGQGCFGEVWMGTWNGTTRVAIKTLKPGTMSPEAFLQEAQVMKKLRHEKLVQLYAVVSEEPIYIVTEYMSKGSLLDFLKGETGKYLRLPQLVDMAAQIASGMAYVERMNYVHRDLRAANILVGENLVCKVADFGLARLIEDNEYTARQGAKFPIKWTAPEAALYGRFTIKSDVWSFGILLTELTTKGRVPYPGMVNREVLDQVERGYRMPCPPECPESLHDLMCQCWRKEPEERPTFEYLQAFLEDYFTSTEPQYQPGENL

Row | Compound | hemoglobin concentration in Matrigel plugs, fold lower compared to control peptide [1] | effect on phosphorylation of β3 integrin cytoplasmic domain by immunoprecipitated c-Src (c-Src) | effect on cell adhesion to vitronectin (HUVECs [2]) | effect on EC migration triggered by VEGF (HUVECs [3]) | effect on β3 integrin tyrosine phosphorylation (β3 integrin)
1 | YGRKKRRQRRR G DTANNPL Yp KEATSTFT-COOH (YGRKKRRQRRRGDTANNPL[pY]KEATSTFT-OH; N-terminus assumed; SMILES CC(C)C[C@H](NC(=O)[C@@H]1CCCN1C(=O)[C@H](CC(N)=O)NC(=O)[C@H](CC(N)=O)NC(=O)[C@H](C)NC(=O)[C@@H](NC(=O)[C@H](CC(=O)O)NC(=O)CNC(=O)[C@H](CCCNC(=N)N)NC(=O)[C@H](CCCNC(=N)N)NC(=O)[C@H](CCCNC(=N)N)NC(=O)[C@H](CCC(N)=O)NC(=O)[C@H](CCCNC(=N)N)NC(=O)[C@H](CCCNC(=N)N)NC(=O)[C@H](CCCCN)NC(=O)[C@H](CCCCN)NC(=O)[C@H](CCCNC(=N)N)NC(=O)CNC(=O)[C@@H](N)Cc1ccc(O)cc1)[C@@H](C)O)C(=O)N[C@@H](Cc1ccc(OP(=O)(O)O)cc1)C(=O)N[C@@H](CCCCN)C(=O)N[C@@H](CCC(=O)O)C(=O)N[C@@H](C)C(=O)N[C@H](C(=O)N[C@@H](CO)C(=O)N[C@H](C(=O)N[C@@H](Cc1ccccc1)C(=O)N[C@H](C(=O)O)[C@@H](C)O)[C@@H](C)O)[C@@H](C)O; listed as Homo sapiens) [SEQ ID NO: 2] | at least 3.5 fold | – | – | – | –
2 | CN(C)S(=O)(=O)c1ccc2c(c1)C(=Cc1cc3c([nH]1)CCCC3)C(=O)N2 [SU6656, 2-oxo-3(4,5,6,7-tetrahydro-1-H-indol-2-ylmethylene)-2,3-dihydro-1H-indole-5-sulfonic acid dimethylamide] | – | blocked this process | caused impairment of cell adhesion to vitronectin | reduced EC migration triggered by VEGF | completely blocked
